Assay results: patent US20230382926A1, “COMPOUNDS AND USES THEREOF” (The University of The West Indies, priority 2022, published 2023)

What was measured:
[1] = system: Enterobacter cloacae ATCC BAA-1143; experiment: Rescue concentration, modified checkerboard MIC adjuvant assay; type: cell-based; conditions: E. cloacae ATCC BAA-1143; for Rescue concentration, Amp (8): Amp at susceptible breakpoint 8 μg mL^−1; for Rescue concentration, Azi (16): Azi at susceptible breakpoint 16 μg mL^−1; for Rescue concentration, Ceph (8): Ceph at susceptible breakpoint 8 μg mL^−1; for Rescue concentration, Chl (8): Chl at susceptible breakpoint 8 μg mL^−1; for Rescue concentration, Col (8): Col at susceptible breakpoint 8 μg mL^−1; for Rescue concentration, Dox (4): Dox at susceptible breakpoint 4 μg mL^−1; for Rescue concentration, Gen (4): Gen at susceptible breakpoint 4 μg mL^−1; for Rescue concentration, Imi (1): Imi at susceptible breakpoint 1 μg mL^−1; for Rescue concentration, Tet (4): Tet at susceptible breakpoint 4 μg mL^−1
In short: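 Each well receives bacteria at 10^6 CFU/ml in cation-adjusted Mueller Hinton Broth, a breakpoint concentration of antibiotic, and one step of a twofold compound series. After aerobic incubation at 35° C. for 24 h, growth is scored by eye; rescue concentration reduces MIC to breakpoint.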

[2] = system: Streptococcus pneumoniae ATCC 49619; experiment: as above; type: cell-based; conditions: S. pneumoniae ATCC 49619; for Rescue concentration, Amox (2): Amox at susceptible breakpoint 2 μg mL^−1; for Rescue concentration, Ery (0.25): Ery at susceptible breakpoint 0.25 μg mL^−1; for Rescue concentration, Imi (0.12): Imi at susceptible breakpoint 0.12 μg mL^−1
[3] = system: Carbapenem resistant Acinetobacter baumannii; experiment: Broth microdilution minimum inhibitory concentration; type: cell-based; conditions: compound alone
In short: (§1)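 Broth microdilution followed CLSI M07-A10, using 11 two-fold dilutions (top 1028 μg/mL, 2% DMSO final) and an inoculum of 2×10^5 to 8×10^5 CFU/mL. Wells were scored visually. MIC is the lowest concentration with no growth, tested in duplicate.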

[4] = system: Carbapenem resistant Klebsiella pneumoniae; experiment: as above; type: cell-based; conditions: compound alone
In short: as §1

[5] = system: Methicillin resistant Staphylococcus aureus; experiment: as above; type: cell-based; conditions: compound alone
In short: as §1

[6] = system: Multidrug resistant Pseudomonas aeruginosa; experiment: as above; type: cell-based; conditions: compound alone
In short: as §1

[7] = system: Vancomycin resistant Enterococcus faecalis; experiment: as above; type: cell-based; conditions: compound alone
In short: as §1

MRSA = experiment: Rescue concentration of substituted phenyl azaindole derivatives; type: cell-based, Staphylococcus aureus; conditions: Amoxicillin fixed at 2 μg/mL
In short: (§2)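 Modified checkerboard MIC: fixed CLSI susceptible-breakpoint antibiotic concentration plus twofold dilution series of SP-azaBIM, 10^6 CFU/ml in ca-MHB, 35° C, 24 h aerobic. Only antibiotics to which the strain was resistant were tested. Rescue concentration = lowest compound concentration giving 99.99% growth reduction (visual) at breakpoint.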

K. pneumoniae = experiment: as above; type: cell-based; conditions: for Rescue concentration, K. pneumoniae Ciprofloxacin (1 μg/mL): Ciprofloxacin fixed at 1 μg/mL; for Rescue concentration, K. pneumoniae Imipenem (1 μg/mL): Imipenem fixed at 1 μg/mL
In short: as §2

P. aeruginosa = experiment: as above; type: cell-based; conditions: Imipenem fixed at 1 μg/mL
In short: as §2

SMILES | Rescue concentration, Amp (8) [1] | Rescue concentration, Azi (16) [1] | Rescue concentration, Ceph (8) [1] | Rescue concentration, Chl (8) [1] | Rescue concentration, Col (8) [1] | Rescue concentration, Dox (4) [1] | Rescue concentration, Gen (4) [1] | Rescue concentration, Imi (1) [1] | Rescue concentration, Tet (4) [1] | Rescue concentration, Amox (2) [2] | Rescue concentration, Ery (0.25) [2] | Rescue concentration, Imi (0.12) [2] | MIC [3] | MIC [4] | MIC [5] | MIC [6] | MIC [7] | Rescue concentration, MRSA Amoxicillin (2 μg/mL) (MRSA) | Rescue concentration, K. pneumoniae Ciprofloxacin (1 μg/mL) (K. pneumoniae) | Rescue concentration, K. pneumoniae Imipenem (1 μg/mL) (K. pneumoniae) | further results
Brc1ccc(C(c2c[nH]c3ncccc23)c2c[nH]c3ncccc23)cc1 [SP-7azaBIM 126, 3,3′-((4-bromophenyl)methylene)bis(1H-pyrrolo[2,3-b]pyridine)] | 128 µg/mL | >128 µg/mL | >128 µg/mL | >128 µg/mL | >128 µg/mL | >128 µg/mL | >128 µg/mL | >128 µg/mL | >128 µg/mL | >128 µg/mL | >128 µg/mL | >128 µg/mL | – | – | – | – | – | – | – | – | –
Brc1ccc(C(c2c[nH]c3cnccc23)c2c[nH]c3cnccc23)cc1 [SP-6azaBIM 125, 3,3′-((4-bromophenyl)methylene)bis(1H-pyrrolo[2,3-c]pyridine)] | 32 µg/mL | >128 µg/mL | >128 µg/mL | >128 µg/mL | >128 µg/mL | >128 µg/mL | >128 µg/mL | >128 µg/mL | >128 µg/mL | >128 µg/mL | >128 µg/mL | >128 µg/mL | < 1020 µg/mL | < 1020 µg/mL | < 1020 µg/mL | < 1020 µg/mL | < 1020 µg/mL | 0.5 µg/mL | 4 µg/mL | 4 µg/mL | Rescue concentration, P. aeruginosa Imipenem (1 μg/mL) (P. aeruginosa): 32 µg/mL
Oc1ccc(C(c2c[nH]c3ncccc23)c2c[nH]c3ncccc23)cc1 [SP-7azaBIM 135, 4-(bis(1H-pyrrolo[2,3-b]pyridin-3-yl)methyl)phenol] | 64 µg/mL | >128 µg/mL | >128 µg/mL | >128 µg/mL | 64 µg/mL | >128 µg/mL | >128 µg/mL | 32 µg/mL | >128 µg/mL | >128 µg/mL | >128 µg/mL | >128 µg/mL | – | – | – | – | – | – | – | – | –
Oc1ccc(C(c2c[nH]c3cnccc23)c2c[nH]c3cnccc23)cc1 [SP-6azaBIM 136, 4-(bis(1H-pyrrolo[2,3-c]pyridin-3-yl)methyl)phenol] | 16 µg/mL | 16 µg/mL | 16 µg/mL | 32 µg/mL | 16 µg/mL | 4 µg/mL | 8 µg/mL | 4 µg/mL | 4 µg/mL | >128 µg/mL | >128 µg/mL | >128 µg/mL | < 1020 µg/mL | < 1020 µg/mL | < 1020 µg/mL | < 1020 µg/mL | < 1020 µg/mL | 8 µg/mL | <256 µg/mL | <256 µg/mL | Rescue concentration, P. aeruginosa Imipenem (1 μg/mL) (P. aeruginosa): 256 µg/mL
